Measurements reported in article PMC8567988 (Frontiers in Microbiology, 2021).
Values joined by “and” are separate entries in the source; they are usually repeats but may differ in a detail not shown here. Identical values can stand only once. Like-named read-outs stand apart in the source and are kept apart here.

What was measured:
[1] = tested on: ASFV Ba71V strain; type: cell-based, African swine fever virus
[2] = tested on: ASFV Ba71V strain
[3] = tested on: ASFV Ba71V strain; assay: microbe, parasite or virus in culture; conditions: African swine fever virus, Vero, 72 h, read-out: inhibition of ASFV-induced CPE
[4] = tested on: ASFV; type: cell-based, African swine fever virus
[5] = in vitro; conditions: African green monkey
[6] = in vivo; cited from earlier work
[7] = tested on: ASFV Ba71V strain; assay: microbe, parasite or virus in culture; type: cell-based, African swine fever virus
[8] = tested on: ASFV Arm/07 isolate; type: cell-based, African swine fever virus
[9] = tested on: ASFV Arm/07 isolate; type: cell-based, African swine fever virus; remark: listed apart in the source
[10] = tested on: ASFV Ba71V strain; assay: microbe, parasite or virus in culture; type: cell-based, African swine fever virus; remark: listed apart in the source
[11] = tested on: ASFV Ba71V strain; type: cell-based, African swine fever virus; remark: listed apart in the source
[12] = tested on: ASFV protein (pA104R); type: cell-based, African swine fever virus
[13] = tested on: ASFV Ba71V; type: cell-based, African swine fever virus
[14] = tested on: ASFV Ba71V; type: cell-based, African swine fever virus; remark: listed apart in the source
[15] = tested on: ASFV Ba71V; type: cell-based, African swine fever virus; remark: listed apart in the source
[16] = tested on: ASFV Ba71V strain; assay: microbe, parasite or virus in culture; type: cell-based, African swine fever virus; remark: listed apart in the source
[17] = tested on: autophagic vacuoles in Vero cells; type: cell-based, African green monkey
[18] = tested on: ASFV Arm/07 isolate; type: cell-based, African swine fever virus; remark: listed apart in the source
[19] = tested on: ASFV Arm/07 isolate; type: cell-based, African swine fever virus; remark: listed apart in the source
[20] = tested on: ASFV Ba71V; type: cell-based, African swine fever virus; remark: listed apart in the source
[21] = tested on: porcine macrophages

## O=c1cc(-c2ccccc2)oc2c1ccc1ccccc12 [7,8-benzoflavone]
[1]
  ASFV yield after virucidal pre-incubation: 4.64±0.09 log TCID50/ml
[2]
  cell monolayer damage upon treatment: no apparent cell monolayer damage
[3]
  inhibition at 10 µg/mL: > 40%

## Oc1c2ccccc2c2c3c(cccc13)N=N2 [SP600125, reference compound]
[4]
  effect of the inhibitor alone on ASFV infection: only a slight effect on ASFV infection

## COc1ccc(-c2coc3cc(O)ccc3c2=O)cc1O [calycosin]
[2]
  cell monolayer damage upon treatment: no apparent cell monolayer damage
[3]
  inhibition at 20 µg/mL: > 40%

## COc1ccc(-c2cc(=O)c3c(O)cc(O[C@@H]4O[C@H](CO[C@@H]5O[C@@H](C)[C@H](O)[C@@H](O)[C@H]5O)[C@@H](O)[C@H](O)[C@H]4O)cc3o2)cc1O [diosmin]
[5]
  CC50: 33.1 µg/mL and 54.4 µM
[2]
  cell monolayer damage upon treatment: no apparent cell monolayer damage
[3]
  inhibition at 10 µg/mL: > 40%

## COc1ccc(-c2cc(=O)c3c(OC)cc(OC)c(OC)c3o2)cc1OC [isosinensetin]
[5]
  CC50: 24.8 µg/mL and 66.6 µM
  viability: 58.5%
[2]
  cell monolayer damage upon treatment: no apparent cell monolayer damage
[3]
  inhibition at 20 µg/mL: > 40%

## O=c1c(O)c(-c2ccc(O)cc2)oc2cc(O)cc(O)c12 [kaempferol, 3,5,7-trihydroxy-2-(4-hydroxyphenyl)-4H-chromen-4-one]
[6]
  human plasma concentration: around 58 nm
[7]
  viral yield: 3.98±0.19 log TCID50/ml
[7]; African swine fever virus, Vero, 24 h, read-out: inhibition of ASFV infection
  inhibition at 20 µg/mL: > 92%
[8]
  anti-ASFV activity: Anti-ASFV activity was observed
  viral titer: 3.4±0.14 log HADU50/ml
[9]
  effect on ASFV entry: could hinder the ASFV attachment and internalization processes
[1]
  virucidal effect: no virucidal effects
[10]
  inhibition of the ASFV yield: more than 60%
  viral titer, attachment experiment: 3.97±0.25 log TCID50/ml
  virus titer, internalization experiment: 3.63±0.11 log TCID50/ml
[10]; African swine fever virus, Vero, read-out: inhibition of the ASFV yield, attachment experiment
  inhibition at 20 µg/mL: ~60%
[2]
  cell monolayer damage upon treatment: no apparent cell monolayer damage
[11]
  inhibition, log decrease of ASFV titer: 1.21 log
[12]
  viral protein synthesis (late protein pA104R): viral protein synthesis was reduced
[13]
  plaque numbers (virus spread): significant reduction in plaque numbers in a dose-dependent manner
[14]
  inhibitory effect on ASFV infection: no significant inhibitory effect
  suppression of viral infection: more than 90%
  viral titer reduction: 1.25 log and 1.1 log
[15]
  viral titers as the interval between infection and removal increased: gradual declines in viral titers
[16]
  antiviral effect, log decrease of ASFV titer: 1.26 log
[16]; African swine fever virus, Vero
  IC50: 2.2 µg/mL and 7.7 µM
[17]
  formation of autophagic vacuoles: induced the formation of autophagic vacuoles
[18]
  decrease in the amount of viral DNA in ASFV factories: 39%
[19]
  inhibition, log decrease of titer: about 2 log
[4]
  antiviral activity in the presence of autophagy inhibitor SP600125: partially abrogated
[20]
  decrease of viral DNA in viral factories vs untreated control: 31%
[3]
  inhibition at 20 µg/mL: > 40%
[21]
  cytotoxicity for porcine cells: not cytotoxic

## COc1c2occc2c(OC)c2c(=O)cc(C)oc12 [khellin]
[2]
  cell monolayer damage upon treatment: no apparent cell monolayer damage
[3]
  inhibition at 10 µg/mL: > 40%

## Oc1ccc2c(c1)OC[C@H]1c3cc4c(cc3O[C@@H]21)OCO4 [maackiain]
[2]
  cell monolayer damage upon treatment: no apparent cell monolayer damage
[3]
  inhibition at 20 µg/mL: > 40%

## COc1cc(O)c2c(c1)O[C@H](c1ccc(O)cc1)CC2=O [sakuranetin]
[2]
  cell monolayer damage upon treatment: no apparent cell monolayer damage
[3]
  inhibition at 20 µg/mL: > 40%

## COc1ccc(-c2cc(=O)c3c(OC)c(OC)c(OC)cc3o2)cc1OC [sinensetin]
[5]
  CC50: 150 µg/mL and 404 µM
[2]
  cell monolayer damage upon treatment: no apparent cell monolayer damage
[3]
  inhibition at 20 µg/mL: > 40%
